Reference: US20170166555A1, “FUNCTIONALISED AND SUBSTITUTED INDOLES AS ANTI-CANCER AGENTS” (Novogen Limited, priority 2013, published 2017)
Where two headings read alike, the source gives them in different places.

Tests used:
Test in all cases: Anti-proliferative assay, cell-titre luminescent reagent, 72 h (GVK-BIO)
Format in all cases: cell-based
[1] = system: SK-N-SH neuroblastoma cells; settings: Homo sapiens
Procedure: (§1) The ability of compounds 4001, 4002, 4008, 4010, 4011, 4013-4015, 4018, 4026, 4045-4113 and 4115-4127 to inhibit the proliferation of cancer cells representative of neuroblastoma, melanoma, prostate cancer, colorectal cancer, non-small cell lung carcinoma, and triple negative breast cancer was assessed. These studies were conducted by contract research (GVK-BIO). Briefly, a pre-determined number of cells as calculated from cell growth assays for each of the cell lines employed were seeded into their respective culture medium (using ATCC culture parameters—http://www.atcc.org) and cultured for 24 h at 37° C. and 5% CO2 in 96-well culture plates. Once attached, each cell line was then exposed to various concentrations of each respective analogue (30, 3, 0.3 and 0.03 μM for compounds in Tables 2, 3 and 4; 30, 10, 3, 1, 0.3 and 0.1 μM for compounds in Table 5), cultured for a further 72 h and exposed to cell-titre luminescent reagent (100 μL/well) for a further 30 min). Luminescence was captured using an EnVision multilabel reader and the data for each analogue concentration compared against no treatment control. For compounds in Tables 2-4, semi-log plots of Percent of Control versus concentration were prepared and IC50 determined using linear regression analysis. For compounds in Table 5, cell viability was normalized to control (vehicle alone) and dose-response curves, and half maximal effective concentration (EC50) values were determined using Graph Pad Prism 6 (nonlinear regression sigmoidal dose-response variable slope).

[2] = system: DU145 prostate cancer cells; settings: Homo sapiens
Procedure: as §1

[3] = system: MDA-MB-231 triple negative breast cancer cells; settings: Homo sapiens
Procedure: as §1

[4] = system: CaCo2 colorectal cancer cells; settings: Homo sapiens
Procedure: as §1

[5] = system: SK-Mel-28 melanoma cells; settings: Homo sapiens
Procedure: as §1

[6] = system: PC3 prostate cancer cells
Procedure: as §1

[7] = system: A549 non-small cell lung carcinoma cells; settings: Homo sapiens, read-out: IC50/μM Lung (NSLC) A549
Procedure: as §1

[8] = SK-N-SH, 30, 3, 0.3 and 0.03 μM, linear regression (Tables 2-4)
[9] = DU-145, 72 h, 30, 3, 0.3 and 0.03 μM, linear regression (Tables 2-4)
[10] = MDA-MB-231, 72 h, 30, 3, 0.3 and 0.03 μM, linear regression (Tables 2-4)
[11] = Caco-2, 72 h, 30, 3, 0.3 and 0.03 μM, linear regression (Tables 2-4)
[12] = SK-MEL-28, 72 h, 30, 3, 0.3 and 0.03 μM, linear regression (Tables 2-4)
[13] = 30, 3, 0.3 and 0.03 μM, linear regression (Tables 2-4)
[14] = A549, 72 h, 30, 3, 0.3 and 0.03 μM, linear regression (Tables 2-4)
[15] = SK-N-SH, 30, 10, 3, 1, 0.3 and 0.1 μM, nonlinear regression (Table 5)
[16] = DU-145, 72 h, 30, 10, 3, 1, 0.3 and 0.1 μM, nonlinear regression (Table 5)
[17] = MDA-MB-231, 72 h, 30, 10, 3, 1, 0.3 and 0.1 μM, nonlinear regression (Table 5)
[18] = Caco-2, 72 h, 30, 10, 3, 1, 0.3 and 0.1 μM, nonlinear regression (Table 5)
[19] = SK-MEL-28, 72 h, 30, 10, 3, 1, 0.3 and 0.1 μM, nonlinear regression (Table 5)
[20] = 30, 10, 3, 1, 0.3 and 0.1 μM, nonlinear regression (Table 5)
[21] = A549, 72 h, 30, 10, 3, 1, 0.3 and 0.1 μM, nonlinear regression (Table 5)

SMILES | IC50 [1, 8] | IC50 [2, 9] | IC50 [3, 10] | IC50 [4, 11] | IC50 [5, 12] | IC50 [6, 13] | IC50 [7, 14] | IC50 [1, 15] | IC50 [2, 16] | IC50 [3, 17] | IC50 [4, 18] | IC50 [5, 19] | IC50 [6, 20] | IC50 [7, 21]
Cc1c(C)n(CCCN(C)C)c2ccc(Nc3cccc(C(=O)Nc4cccc(F)c4)c3)cc12 [Compound 4075, 3-((1-(3-(dimethylamino)propyl)-2,3-dimethyl-1H-indol-5-yl)amino)-N-(3-fluorophenyl)benzamide] | 2.6 µM | 3 µM | 2.6 µM | 3.3 µM | 2.7 µM | 4.5 µM | 2.9 µM |  |  |  |  |  |  | 
COc1cccc(NC(=O)c2cccc(Nc3ccc4c(c3)c(C)c(C)n4CCCN(C)C)c2)c1 [Compound 4076, 3-((1-(3-(dimethylamino)propyl)-2,3-dimethyl-1H-indol-5-yl)amino)-N-(3-methoxyphenyl)benzamide] | 2.8 µM | 3.2 µM | 1.7 µM | 2.9 µM | 2.1 µM | 3.7 µM | 1.8 µM |  |  |  |  |  |  | 
CN(C)CCCn1ccc2cc(Cc3ccc(C(=O)Nc4ccc(F)cc4)cc3)ccc21 [Compound 4077, 4-((1-(3-(dimethylamino)propyl)-1H-indol-5-yl)methyl)-N-(4-fluorophenyl)benzamide] | 3.1 µM | 3.2 µM | 3.4 µM | 3.3 µM | 2.7 µM | 2.8 µM | 3.3 µM |  |  |  |  |  |  | 
COc1ccc(NC(=O)c2ccc(Cc3ccc4c(ccn4CCCN(C)C)c3)cc2)cc1 [Compound 4078, 4-((1-(3-(dimethylamino)propyl)-1H-indol-5-yl)methyl)-N-(4-methoxyphenyl)benzamide] | 6.5 µM | 1.4 µM | 1.6 µM | 3.6 µM | 1.9 µM | 1.2 µM | 1.4 µM |  |  |  |  |  |  | 
CN(C)CCCn1ccc2cc(Cc3ccc(C(=O)Nc4ccc5c(c4)OCO5)cc3)ccc21 [Compound 4079, N-(benzo[d][1, 3]dioxol-5-yl)-4-((1-(3-(dimethylamino)propyl)-1H-indol-5-yl)methyl)benzamide] | 2.9 µM | 3.1 µM | 4.3 µM | > 30 µM | 2.8 µM | 1.8 µM | 3.1 µM |  |  |  |  |  |  | 
CN(C)CCCn1ccc2cc(Cc3ccc(C(=O)Nc4cccc(F)c4)cc3)ccc21 [Compound 4080, 4-((1-(3-(dimethylamino)propyl)-1H-indol-5-yl)methyl)-N-(3-fluorophenyl)benzamide] | 2.8 µM | 3.5 µM | 3.2 µM | 3 µM | 3.1 µM | 3 µM | 3.1 µM |  |  |  |  |  |  | 
COc1cccc(NC(=O)c2ccc(Cc3ccc4c(ccn4CCCN(C)C)c3)cc2)c1 [Compound 4081, 4-((1-(3-(dimethylamino)propyl)-1H-indol-5-yl)methyl)-N-(3-methoxyphenyl)benzamide] | 1.6 µM | 2.9 µM | 2.5 µM | 3.1 µM | 2.3 µM | 2.1 µM | 2.9 µM |  |  |  |  |  |  | 
Cc1c(C)n(CCCN(C)C)c2ccc(Cc3ccc(C(=O)Nc4ccc(F)cc4)cc3)cc12 [Compound 4082, 4-((1-(3-(dimethylamino)propyl)-2,3-dimethyl-1H-indol-5-yl)methyl)-N-(4-fluorophenyl)benzamide] |  |  |  |  |  |  |  | 4.8 µM | 2.6 µM | 4.2 µM | 4 µM | 4.6 µM | 3.9 µM | 4.9 µM
COc1ccc(NC(=O)c2ccc(Cc3ccc4c(c3)c(C)c(C)n4CCCN(C)C)cc2)cc1 [Compound 4083, 4-((1-(3-(dimethylamino)propyl)-2,3-dimethyl-1H-indol-5-yl)methyl)-N-(4-methoxyphenyl)benzamide] |  |  |  |  |  |  |  | 3.3 µM | 5.1 µM | 13.1 µM | 11.9 µM | 4.7 µM | 13.2 µM | 11.2 µM
Cc1c(C)n(CCCN(C)C)c2ccc(Cc3ccc(C(=O)Nc4ccc5c(c4)OCO5)cc3)cc12 [Compound 4084, N-(benzo[d][1,3]dioxol-5-yl)-4-((1-(3-(dimethylamino)propyl)-2,3-dimethyl-1H-indol-5-yl)methyl)benzamide] |  |  |  |  |  |  |  | 10.6 µM | 4.8 µM | 6.5 µM | 7.1 µM | 5.5 µM | 3.5 µM | 6 µM
Cc1c(C)n(CCCN(C)C)c2ccc(Cc3ccc(C(=O)Nc4cccc(F)c4)cc3)cc12 [Compound 4085, 4-((1-(3-(dimethylamino)propyl)-2,3-dimethyl-1H-indol-5-yl)methyl)-N-(3-fluorophenyl)benzamide] | 9.8 µM | 11 µM | 11.2 µM | 10.9 µM | 10.5 µM | 10.1 µM | 10.1 µM |  |  |  |  |  |  | 
COc1cccc(NC(=O)c2ccc(Cc3ccc4c(c3)c(C)c(C)n4CCCN(C)C)cc2)c1 [Compound 4086, 4-((1-(3-(dimethylamino)propyl)-2,3-dimethyl-1H-indol-5-yl)methyl)-N-(3-methoxyphenyl)benzamide] |  |  |  |  |  |  |  | 5.7 µM | 4.3 µM | 6.2 µM | 7.6 µM | 5.2 µM | 4.8 µM | 5 µM
Cc1c(C)n(CCCN(C)C)c2ccc(Cc3ccc(C(=O)Nc4ccccc4)cc3)cc12 [Compound 4087, 4-((1-(3-(dimethylamino)propyl)-2,3-dimethyl-1H-indol-5-yl)methyl)-N-phenylbenzamide] |  |  |  |  |  |  |  | 5.6 µM | 7.1 µM | 7.5 µM | 23.1 µM | 4.8 µM | 7.4 µM | 8.9 µM
CN(C)CCCn1ccc2cc(Oc3ccc(C(=O)Nc4ccc(F)cc4)cc3)ccc21 [Compound 4088, 4-((1-(3-(dimethylamino)propyl)-1H-indol-5-yl)oxy)-N-(4-fluorophenyl)benzamide] | 3.4 µM | 3.3 µM | 3.8 µM | 4.1 µM | 4.3 µM | 3.5 µM | 3.4 µM |  |  |  |  |  |  | 
COc1ccc(NC(=O)c2ccc(Oc3ccc4c(ccn4CCCN(C)C)c3)cc2)cc1 [Compound 4089, 4-((1-(3-(dimethylamino)propyl)-1H-indol-5-yl)oxy)-N-(4-methoxyphenyl)benzamide] |  |  |  |  |  |  |  | 4.4 µM | 4.4 µM | 5.2 µM | 13.2 µM | 4.3 µM | 4.4 µM | 7.7 µM
CN(C)CCCn1ccc2cc(Oc3ccc(C(=O)Nc4ccc5c(c4)OCO5)cc3)ccc21 [Compound 4090, N-(benzo[d][1,3]dioxol-5-yl)-4-((1-(3-(dimethylamino)propyl)-1H-indol-5-yl)oxy)benzamide] |  |  |  |  |  |  |  | 6.3 µM | 4.6 µM | 9.6 µM | 5.3 µM | 7.2 µM | 2.5 µM | 8.4 µM
CN(C)CCCn1ccc2cc(Oc3ccc(C(=O)Nc4cccc(F)c4)cc3)ccc21 [Compound 4091, 4-((1-(3-(dimethylamino)propyl)-1H-indol-5-yl)oxy)-N-(3-fluorophenyl)benzamide] |  |  |  |  |  |  |  | 9.7 µM | 10.6 µM | 28.9 µM | 10.2 µM | 15.4 µM | 19.6 µM | 9.5 µM
COc1cccc(NC(=O)c2ccc(Oc3ccc4c(ccn4CCCN(C)C)c3)cc2)c1 [Compound 4092, 4-((1-(3-(dimethylamino)propyl)-1H-indol-5-yl)oxy)-N-(3-methoxyphenyl)benzamide] |  |  |  |  |  |  |  | 13.8 µM | 16.7 µM | 22.6 µM | 17.1 µM | 13.3 µM | 38.3 µM | 8.3 µM
